Tests used:
Conditions in all cases: 72 h
HepG2 [1] = experiment: relative viability EC50 (midpoint between 100% and the lowest measured viability); higher = less toxic
Calu-3 [2] = experiment: as above
U2OS [3] = experiment: as above
Vero E6 [4] = experiment: as above
Caco-2 [5] = experiment: as above
HepG2 [6] = experiment: drug sensitivity score (DSS) for viability; higher = more toxic; extreme values may be limits of the assay
Calu-3 [7] = experiment: as above
U2OS [8] = experiment: as above
Vero E6 [9] = experiment: as above
Caco-2 [10] = experiment: as above
HepG2 [11] = experiment: cell viability relative to DMSO; higher = less toxic
Calu-3 [12] = experiment: as above
U2OS [13] = experiment: as above
Vero E6 [14] = experiment: as above
Caco-2 [15] = experiment: as above

Structure (SMILES)	relative viability EC50 (HepG2 [1]) [µM]	relative viability EC50 (Calu-3 [2]) [µM]	relative viability EC50 (U2OS [3]) [µM]	relative viability EC50 (Vero E6 [4]) [µM]	relative viability EC50 (Caco-2 [5]) [µM]	drug sensitivity score (HepG2 [6])	drug sensitivity score (Calu-3 [7])	drug sensitivity score (U2OS [8])	drug sensitivity score (Vero E6 [9])	drug sensitivity score (Caco-2 [10])	cell viability (HepG2 [11]; 1 nM) [%]	cell viability (HepG2 [11]; 10 nM) [%]	cell viability (HepG2 [11]; 100 nM) [%]	cell viability (HepG2 [11]; 1000 nM) [%]	cell viability (HepG2 [11]; 10000 nM) [%]	cell viability (Calu-3 [12]; 1 nM) [%]	cell viability (Calu-3 [12]; 10 nM) [%]	cell viability (Calu-3 [12]; 100 nM) [%]	cell viability (Calu-3 [12]; 1000 nM) [%]	cell viability (Calu-3 [12]; 10000 nM) [%]	cell viability (U2OS [13]; 1 nM) [%]	cell viability (U2OS [13]; 10 nM) [%]	cell viability (U2OS [13]; 100 nM) [%]	cell viability (U2OS [13]; 1000 nM) [%]	cell viability (U2OS [13]; 10000 nM) [%]	cell viability (Vero E6 [14]; 1 nM) [%]	cell viability (Vero E6 [14]; 10 nM) [%]	cell viability (Vero E6 [14]; 100 nM) [%]	cell viability (Vero E6 [14]; 1000 nM) [%]	cell viability (Vero E6 [14]; 10000 nM) [%]	cell viability (Caco-2 [15]; 1 nM) [%]	cell viability (Caco-2 [15]; 10 nM) [%]	cell viability (Caco-2 [15]; 100 nM) [%]	cell viability (Caco-2 [15]; 1000 nM) [%]	cell viability (Caco-2 [15]; 10000 nM) [%]
NC(=O)NCCC[C@H](N)C(=O)O [L-citrulline]	> 10	> 10	> 10	> 10	> 10	0	0	0	0	0	100	95.2	92.7	91.4	94	101	92.2	98.6	96.9	110	98.7	102	95.5	105	95.6	98.6	96	97.2	97.8	102	99	104	92.3	101	92.4
N=C(Nc1ccccc1)c1cccs1 [LTA]	> 10	> 10	> 10	> 10	> 10	0	0	0	0	0	105	105	96.8	99.1	110	97.6	104	97.4	104	91.6	99.9	104	95.9	104	95.7	99.7	101	93.5	99.1	103	89.4	88.4	98.1	93.7	82.8
CN1C(=O)C(F)=C[C@]2(C)[C@H]3CC[C@]4(C)[C@@H](C(=O)NCc5nc6cccnc6[nH]5)CC[C@H]4[C@@H]3CC[C@@H]12 [MK-0773]	> 10	> 10	> 10	> 10	> 10	0.9	0	0	0	1.8	91.1	108	93	91.4	87.9	103	103	101	97.7	100	99	99.4	98.8	95.4	95.9	99.2	102	96.2	104	104	102	92.4	100	83.3	87.7
CC(C)(C)NC(=O)[C@@H](c1cccnc1)N(C(=O)c1ccco1)c1ccc(C(C)(C)C)cc1 [ML188]	> 10	> 10	> 10	> 10	> 10	0	0	0	0	0	96.3	101	92.1	106	95	93.6	93.4	96.9	102	89.7	93.9	100	96.6	101	98.8	93.1	97.7	103	108	97.6	99.7	95	98.2	101	89.9
